Several values for one entry are separate records, joined by “and”; a condition that tells them apart may be missing. Equal values may be shown once. Inconclusive results and toxic doses are left out.
System: L1210 leukemia ip in BDF1 mice, survival T/C
Experiment: NCI In Vivo Anticancer Drug Screen. Data for tumor model L1210 Leukemia (intraperitoneal) in B6D2F1 (BDF1) mice
Settings: endpoint: mean survival time, higher = longer survival
In short: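 Tumor cells were implanted, animals were treated, and survival was followed. The result divides the treated measurement by the vehicle-control measurement.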

[1] = dose: 12.5 mg/kg/injection, schedule: Q04DX002 (ip), vehicle: Klucel (hydroxypropylcellulose) (HPC)
[2] = dose: 25.0 mg/kg/injection, schedule: Q04DX002 (ip), vehicle: Klucel (hydroxypropylcellulose) (HPC)
[3] = dose: 50.0 mg/kg/injection, schedule: Q04DX002 (ip), vehicle: Klucel (hydroxypropylcellulose) (HPC)
[4] = dose: 100.0 mg/kg/injection, schedule: Q01DX001 (ip), vehicle: saline
[5] = dose: 200.0 mg/kg/injection, schedule: Q01DX001 (ip), vehicle: saline
[6] = dose: 400.0 mg/kg/injection, schedule: Q01DX001 (ip), vehicle: saline
[7] = dose: 100.0 mg/kg/injection, schedule: Q01DX009 (ip), vehicle: saline
[8] = dose: 100.0 mg/kg/injection, schedule: Q04DX003 (ip), vehicle: saline
[9] = dose: 200.0 mg/kg/injection, schedule: Q01DX009 (ip), vehicle: saline
[10] = dose: 200.0 mg/kg/injection, schedule: Q04DX003 (ip), vehicle: saline
[11] = dose: 400.0 mg/kg/injection, schedule: Q01DX009 (ip), vehicle: saline
[12] = dose: 400.0 mg/kg/injection, schedule: Q04DX003 (ip), vehicle: saline
[13] = dose: 150.0 mg/kg/injection, schedule: Q04DX003 (ip), vehicle: saline
[14] = dose: 100.0 mg/kg/injection, schedule: Q04DX003 (ip), vehicle: saline with Tween-80
[15] = dose: 200.0 mg/kg/injection, schedule: Q04DX003 (ip), vehicle: saline with Tween-80
[16] = dose: 400.0 mg/kg/injection, schedule: Q04DX003 (ip), vehicle: saline with Tween-80
[17] = dose: 50.0 mg/kg/injection, schedule: Q01DX009 (ip), vehicle: saline
[18] = dose: 100.0 mg/kg/injection, schedule: Q04DX003 (ip), vehicle: Klucel (hydroxypropylcellulose) (HPC)
[19] = dose: 200.0 mg/kg/injection, schedule: Q04DX003 (ip), vehicle: Klucel (hydroxypropylcellulose) (HPC)

SMILES: COc1ccc(OC)c2c(C(C)=O)c[nH]c12
- T/C [1]: 118 % of control
- T/C [2]: 112 % of control
- T/C [3]: 93 % of control

SMILES: Nc1ccc2c(c1)C(=O)c1c(C(=O)O)cccc1-2
- T/C (dose: 75.0 mg/kg/injection, schedule: Q01DX001 (ip), vehicle: carboxymethylcellulose (CMC)): 108 % of control
- T/C (dose: 150.0 mg/kg/injection, schedule: Q01DX001 (ip), vehicle: carboxymethylcellulose (CMC)): 101 % of control

SMILES: CCOC(=O)CC(C)C(Br)(C(=O)OCC)C(=O)OCC (stereo not given)
- T/C (dose: 25.0 mg/kg/injection, schedule: Q01DX009 (ip), vehicle: water): 109 % of control
- T/C (dose: 50.0 mg/kg/injection, schedule: Q01DX009 (ip), vehicle: water): 111 % of control
- T/C (dose: 100.0 mg/kg/injection, schedule: Q01DX009 (ip), vehicle: water): 100 % of control
- T/C (dose: 200.0 mg/kg/injection, schedule: Q01DX009 (ip), vehicle: water): 96 % of control

SMILES: Cc1ccc(S(=O)(=O)NC(=O)NCc2cccc(Cl)c2)cc1
- T/C (dose: 100.0 mg/kg/injection, schedule: Q01DX009 (ip), vehicle: Klucel (hydroxypropylcellulose) (HPC)): 101 % of control
- T/C (dose: 200.0 mg/kg/injection, schedule: Q01DX009 (ip), vehicle: Klucel (hydroxypropylcellulose) (HPC)): 101 % of control
- T/C (dose: 400.0 mg/kg/injection, schedule: Q01DX009 (ip), vehicle: Klucel (hydroxypropylcellulose) (HPC)): 96 % of control

SMILES: CC(C)c1ccc(C(C2C(=O)CC(C)(C)CC2=O)C2C(=O)CC(C)(C)CC2=O)cc1
- T/C [4]: 103 % of control
- T/C [5]: 109 % of control
- T/C [6]: 107 % of control

SMILES: CCC(/C=C1\[Se]c2ccc(C)cc2N1CC)=C\c1[se]c2ccc(C)cc2[n+]1CC
- T/C (dose: 2.0 mg/kg/injection, schedule: Q01DX001 (ip), vehicle: other): 103 % of control
- T/C (dose: 4.0 mg/kg/injection, schedule: Q01DX001 (ip), vehicle: other): 101 % of control

SMILES: CC(CO)(CO)NC(=O)Nc1ccccc1F
- T/C (dose: 100.0 mg/kg/injection, schedule: Q01DX009 (ip), vehicle: saline with Tween-80): 113 % of control
- T/C (dose: 200.0 mg/kg/injection, schedule: Q01DX009 (ip), vehicle: saline with Tween-80): 103 % of control
- T/C (dose: 400.0 mg/kg/injection, schedule: Q01DX009 (ip), vehicle: saline with Tween-80): 101 % of control

SMILES: CC(=O)OC1CCC2(C)C(=CCC3C2CCC2(C)C3CC3C(c4ccccc4C)=NN(c4ccccc4)C32C#N)C1 (stereo not given)
- T/C [1]: 102 % of control
- T/C [2]: 97 % of control
- T/C [3]: 97 % of control

SMILES: CCSCCSCC
- T/C [7]: 98 % of control
- T/C [8]: 101 % of control
- T/C [9]: 98 % of control
- T/C [10]: 97 % of control
- T/C [11]: 96 % of control
- T/C [12]: 97 % of control

SMILES: NCCSC1(O)C(=O)c2ccccc2-c2ccccc21 (stereo not given)
- T/C (dose: 37.5 mg/kg/injection, schedule: Q04DX003 (ip), vehicle: saline): 94 % of control
- T/C (dose: 75.0 mg/kg/injection, schedule: Q01DX001 (ip), vehicle: saline): 101 % of control
- T/C (dose: 75.0 mg/kg/injection, schedule: Q04DX003 (ip), vehicle: saline): 103 % of control
- T/C (dose: 150.0 mg/kg/injection, schedule: Q01DX001 (ip), vehicle: saline): 95 % of control
- T/C [13]: 95 % of control

SMILES: CC1(C)CC2(OC2c2cccc(Cl)c2)C(=O)c2ccccc21 (stereo not given)
- T/C [14]: 89 % of control
- T/C [15]: 94 % of control
- T/C [16]: 89 % of control

SMILES: N=C(N)N=Nc1ccc(NN=C(N)N)c2ccccc12
- T/C (dose: 15.0 mg/kg/injection, schedule: Q01DX Z (ip), vehicle: saline): 94 % of control
- T/C (dose: 15.0 mg/kg/injection, schedule: Q01DX Z (oral), vehicle: other): 103 % of control
- T/C (dose: 30.0 mg/kg/injection, schedule: Q01DX Z (ip), vehicle: saline): 102 % of control
- T/C (dose: 30.0 mg/kg/injection, schedule: Q01DX Z (oral), vehicle: other): 98 % of control
- T/C (dose: 60.0 mg/kg/injection, schedule: Q01DX Z (oral), vehicle: other): 98 % of control
- T/C (dose: 120.0 mg/kg/injection, schedule: Q01DX Z (oral), vehicle: other): 95 % of control

SMILES: CCCCCCCCCCN1CCN2C(=O)N(CC)CCC2C1 (stereo not given)
- T/C (dose: 25.0 mg/kg/injection, schedule: Q04DX003 (ip), vehicle: saline with Tween-80): 94 % of control
- T/C (dose: 50.0 mg/kg/injection, schedule: Q04DX003 (ip), vehicle: saline with Tween-80): 105 % of control
- T/C (dose: 100.0 mg/kg/injection, schedule: Q01DX001 (ip), vehicle: saline with Tween-80): 96 % of control
- T/C [14]: 94 % of control

SMILES: CC(=O)Nc1cc(NC(C)=O)cc([N+](=O)[O-])c1
- T/C [17]: 96 % of control
- T/C [7]: 105 % of control
- T/C [8]: 94 % of control
- T/C [10]: 102 % of control
- T/C [12]: 100 % of control

SMILES: C#CC(C)ON1C(=O)c2ccccc2C1=O (stereo not given)
- T/C (dose: 100.0 mg/kg/injection, schedule: Q01DX009 (ip), vehicle: saline sonified): 96 % of control
- T/C [14]: 115 % of control
- T/C (dose: 200.0 mg/kg/injection, schedule: Q01DX009 (ip), vehicle: saline sonified): 97 % of control
- T/C [15]: 114 % of control
- T/C (dose: 400.0 mg/kg/injection, schedule: Q01DX009 (ip), vehicle: saline sonified): 104 % of control
- T/C [16]: 109 % of control

SMILES: CC(C)Cn1cnc2c(SCc3ccc(Cl)cc3Cl)nc(N)nc21
- T/C [7]: 100 % of control
- T/C (dose: 100.0 mg/kg/injection, schedule: Q04DX003 (ip), vehicle: acetone): 92 % of control
- T/C [9]: 102 % of control
- T/C (dose: 200.0 mg/kg/injection, schedule: Q04DX003 (ip), vehicle: acetone): 91 % of control
- T/C [11]: 97 % of control
- T/C (dose: 400.0 mg/kg/injection, schedule: Q04DX003 (ip), vehicle: acetone): 89 % of control

SMILES: CC1(C)COC(C)(C)C(=O)O1
- T/C [18]: 106 % of control
- T/C [19]: 97 % of control

SMILES: COc1cccc(C(N)C(=O)O)c1 (stereo not given)
- T/C (dose: 50.0 mg/kg/injection, schedule: Q01DX001 (ip), vehicle: saline): 94 % of control
- T/C [4]: 100 % of control
- T/C [5]: 105 % of control
- T/C [6]: 97 % of control

SMILES: O=CC1CC2CCC1C2 (stereo not given)
- T/C [4]: 116 % of control
- T/C [5]: 91 % of control
- T/C [6]: 96 % of control

SMILES: Nc1nc(N)c(C=O)c(Nc2ccc(Br)cc2)n1
- T/C (dose: 50.0 mg/kg/injection, schedule: Q01DX001 (ip), vehicle: alcohol): 110 % of control
- T/C (dose: 100.0 mg/kg/injection, schedule: Q01DX001 (ip), vehicle: alcohol): 96 % of control
- T/C (dose: 200.0 mg/kg/injection, schedule: Q01DX001 (ip), vehicle: alcohol): 94 % of control
- T/C (dose: 400.0 mg/kg/injection, schedule: Q01DX001 (ip), vehicle: alcohol): 90 % of control

SMILES: CCN(C(=O)c1ccc2c3c(cccc13)C=C2)c1ccccc1
- T/C [4]: 104 % of control
- T/C [5]: 98 % of control
- T/C [6]: 98 % of control

SMILES: O=C1CN(C(=O)CN2C(=O)c3ccccc3C2=O)C2(CCCCC2)O1
- T/C (dose: 66.0 mg/kg/injection, schedule: Q04DX003 (ip), vehicle: saline sonified): 94 % of control
- T/C (dose: 150.0 mg/kg/injection, schedule: Q04DX003 (ip), vehicle: saline sonified): 101 % of control
- T/C (dose: 200.0 mg/kg/injection, schedule: Q04DX003 (ip), vehicle: saline sonified): 95 % of control
- T/C (dose: 400.0 mg/kg/injection, schedule: Q04DX003 (ip), vehicle: saline sonified): 97 % of control

SMILES: CC(CN1CC(=O)NC(=O)C1)N1CC(=O)NC(=O)C1.[Cl-].[Pt+4] (stereo not given)
- T/C (dose: 6.25 mg/kg/injection, schedule: Q01DX009 (ip), vehicle: saline): 110 % of control
- T/C (dose: 25.0 mg/kg/injection, schedule: Q01DX009 (ip), vehicle: saline): 114 % of control and 120 % of control
- T/C (dose: 25.0 mg/kg/injection, schedule: Q04DX003 (ip), vehicle: saline): 108 % of control
- T/C [17]: 120 % of control
- T/C (dose: 50.0 mg/kg/injection, schedule: Q04DX003 (ip), vehicle: saline): 109 % of control and 120 % of control
- T/C [7]: 114 % of control
- T/C [8]: 153 % of control
- T/C [13]: 116 % of control

SMILES: Brc1cc(Br)cc(Br)c1
- T/C [18]: 92 % of control and 98 % of control
- T/C [19]: 101 % of control and 105 % of control
- T/C (dose: 400.0 mg/kg/injection, schedule: Q04DX003 (ip), vehicle: Klucel (hydroxypropylcellulose) (HPC)): 98 % of control and 103 % of control
